For seven molecules, GI50 and TGI results are on record in PubChem BioAssay (NCI).

SMILES strings stand for the structures.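 Results reflect a 48-hour exposure of cells in 96-well plates to compound at five concentrations. Here, GI50 denotes the concentration required for 50% inhibition of growth. At the TGI there is no net growth.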

Test in all cases: DTP human tumour cell line panel, 48 h
The subject of test [1] is 786-0 renal.
The subject of test [2] is A549 NSCLC.
Test [3] has as its system BT-549 breast.
In test [4] the test system is CCRF-CEM leukemia.
For test [5], the system named is EKVX NSCLC.
Test [6] relates to HCT-15 colon.
In test [7] the test system is HL-60(TB) leukemia.
Test [8] relates to MOLT-4 leukemia.
Test [9] relates to SF-295 CNS.
Test [10] deals with SR leukemia.

As a reminder, the GI50 is the concentration that inhibits growth by half. Broadly, the TGI is the concentration at which net growth stops. Turning to `C/C(=C\c1csc(C)n1)[C@@H]1C[C@@H]2O[C@]2(C)CCC[C@H](C)[C@H](O)[C@@H](C)C(=O)C(C)(C)[C@@H](O)CC(=O)N1`, the 50% growth inhibitory concentration (GI50) in test [1] is 0.000182 µM; in test [2] it was 9.28e-05 µM; in test [3] it was 0.000187 µM; in [4] it was 0.000125 µM; in test [5], 0.000337 µM; in [6], 0.000152 µM. Moreover, the GI50 is 0.083 nM in test [7], 0.000115 µM in [8], 0.000156 µM in [9] and 0.00102 µM in [10]. Moreover, the TGI in test [1] was 0.000356 µM; in test [2], 0.000294 µM; in test [3], 0.000416 µM; in test [4], 0.000203 µM; in test [5], 0.000626 µM; in test [6], 0.000344 µM. Moreover, the TGI in [7] was found to be 0.000163 µM; in test [8], 0.000214 µM; in test [9], 0.000423 µM; in test [10], 0.00332 µM.
Regarding `COc1cc(/C=C/C(=O)c2nc3cc(F)ccc3nc2C)cc(OC)c1OC`, the GI50 in test [1] was more than 23.2 µM; in test [2] it was 7.37 µM; in test [3] it was 8.12 µM; in [4] it was 1.85 µM; in [5] it was more than 78.7 µM; in [6] it was 2.94 µM. The GI50 in [7] is 1780 nM; in test [8], 1.99 µM; in test [9] it was more than 25.2 µM; in [10], 1.85 µM. For the same molecule, the TGI in [1] is more than 100 µM; in [2], more than 100 µM; in test [3] it was more than 100 µM; in [4] it was more than 21 µM; in test [5], more than 100 µM; in test [6] it was more than 100 µM. Besides, the TGI in test [8] is more than 22.3 µM; in test [9] it was more than 100 µM; in [10] it was more than 100 µM.
For `O=S(=O)(O)C(c1ccccc1)C(O)c1ccccc1` (stereo not given), the TGI in [1], in test [2], in test [3], in test [4], in [5] and in test [6] was more than 100 µM throughout. Moreover, the TGI in [7], in test [9] and in test [10] was more than 100 µM each time.
Take `O=C(NO)c1ccc(CNc2cccc3nc(C4CC4)n(-c4ccccc4)c(=O)c23)cc1`: the GI50 in test [1] is 2.18 µM; in test [2], 2.23 µM; in test [3] it was 3.24 µM; in test [4] it was 1.5 µM; in test [5], 2.55 µM; in test [6] it was 1.98 µM. Moreover, the values for the GI50 in test [7], in test [8] and in test [10] were 2390 nM, 2.79 µM and 0.877 µM, respectively. Further, the TGI was 5.2 µM in test [1]; 5.74 µM in [2]; 14.3 µM in [3]; more than 100 µM in test [4]; 7.43 µM in [5]; 6.33 µM in test [6]. The TGI is 5.64 µM in [7], 23.3 µM in [8] and more than 100 µM in [10].
For the molecule `FC(F)(F)c1cccc(CNC2CCN(CCc3ccccc3)CC2)c1`, the GI50 was 14.6 µM in test [1]; 40.3 µM in [2]; 24.8 µM in [3]; 27 µM in [4]; 23.3 µM in test [6]; 20900 nM in [7]. For the same molecule, the GI50 in test [8] was 20.5 µM; in test [9], 17.2 µM; in test [10], 15.1 µM. In addition, the TGI in test [1] is 32.6 µM; in test [2], more than 100 µM; in test [3], more than 100 µM; in test [4] it was 75.8 µM; in test [6], more than 100 µM; in test [7] it was 49 µM. The TGI is 70.4 µM in test [8], 35.4 µM in [9] and 41.6 µM in test [10].
Take `O=C1NC(=NCc2cccs2)O/C1=C\c1ccc2ncccc2c1`: the GI50 in test [1] was 6.21 µM; in [2], 4.46 µM; in [3], 3.15 µM; in [4] it was 4.8 µM; in [6], 6.38 µM; in test [7], 4640 nM. In addition, the results for the GI50 in [8], in test [9] and in test [10] were 4.88 µM, 5.03 µM and 2.58 µM, respectively. The concentration for total growth inhibition (TGI) was more than 20.3 µM in [1]; 12.5 µM in test [2]; 13.3 µM in [3]; 16.7 µM in test [4]; more than 25 µM in test [6]; 15.3 µM in [7]. For the same molecule, the TGI in test [8] came out at 12.4 µM; in test [9], 15.9 µM; in test [10] it was 10.7 µM.
As to `COc1cc2c(cc1C)NC(=O)/C2=C\c1ccc(Oc2ccccc2)cc1`, the GI50 was 12 µM in [1]; 14.7 µM in test [2]; 14.2 µM in [3]; 8.36 µM in [4]; 12.9 µM in [5]; 12.1 µM in [6]. Moreover, the figures for the GI50 in test [7], in test [9] and in test [10] were 51.1 nM, 17 µM and 0.0697 µM, respectively. The total growth inhibition concentration (TGI) in test [1] was determined as 24.8 µM; in [2], 33.4 µM; in [3] it was 28.3 µM; in [4], 27.5 µM; in [5], 27 µM; in test [6], 24.5 µM. The figures for the TGI in test [7], in test [9] and in test [10] were 11.8 µM, 36.8 µM and 2.1 µM, respectively.
